Ends that are not written are not given here.
Tested on: subjects with osteoarthritis of the knees
Assay: Clinical study of TPX-100, safety and tolerability of intra-articular administration
Format: in vivo, human

TDLQERGDNDISPFSGDGQPFKD-NH2 [TPX-100]
Dose-limiting toxicities (Part A, 20, 50, 100 and 200 mg per intra-articular injection, 4 weekly injections): no dose-limiting toxicities
Severe adverse events related to the drug treatment (throughout the study period): no severe adverse events likely or possibly related to the drug treatment
Severity of treatment-related adverse events (throughout the study period): mild or moderate, transient
Safety and tolerability of treatments (throughout the study period (12 months)): safe and well tolerated

— patent US11389505B2, “Method of managing joint pain” (ORTHOTROPHIX, INC., priority 2017, dated 2022)
